Molecules are shown by their SMILES.

Chain of human factor Xa (P00742 235-488 limits assumed): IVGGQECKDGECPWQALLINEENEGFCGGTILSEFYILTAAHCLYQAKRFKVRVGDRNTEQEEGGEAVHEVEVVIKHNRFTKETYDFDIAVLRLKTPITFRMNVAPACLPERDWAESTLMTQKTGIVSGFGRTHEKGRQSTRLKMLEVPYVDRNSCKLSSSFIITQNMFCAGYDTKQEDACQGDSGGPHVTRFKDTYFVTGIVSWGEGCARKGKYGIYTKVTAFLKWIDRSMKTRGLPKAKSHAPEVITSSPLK
Chain of human factor Xa (P00742 41-179 partner limits assumed): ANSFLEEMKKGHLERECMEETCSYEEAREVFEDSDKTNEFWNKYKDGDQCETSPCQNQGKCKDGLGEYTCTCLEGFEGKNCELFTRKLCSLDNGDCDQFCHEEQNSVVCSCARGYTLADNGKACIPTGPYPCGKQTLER

The first experiment addresses human factor Xa (Homo sapiens, UniProt P00742). Kind of experiment: Factor Xa assay (chromogenic, substrate S-2765).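 Note: purified enzyme preincubated with inhibitor for 10 min before substrate addition, final reaction volume 100 µl.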 In kind it is biochemical.
Conditions: not given
As to `CC(C)N1CCC(NC(=O)c2c(C#N)c3ccccc3n2Cc2cc(-c3ccc(Cl)s3)on2)CC1` [Example 160, 1-[5-(5-Chloro-thiophen-2-yl)-isoxazol-3-ylmethyl]-3-cyano-1H-indole-2-carboxylic acid (1-isopropyl-piperidin-4-yl)-amide], the affinity corresponds to a Ki of 0.1 nM.

As for `Cc1cccc2c(C#N)c(C(=O)NC3CCN(C(C)C)CC3)n(Cc3cc(-c4ccc(Cl)s4)on3)c12` [Example 161, 1-[5-(5-Chloro-thiophen-2-yl)-isoxazol-3-ylmethyl]-3-cyano-7-methyl-1H-indole-2-carboxylic acid (1-isopropyl-piperidin-4-yl)-amide], the Ki (in general, the equilibrium dissociation constant of an inhibitor or competing ligand from its target) is 0.1 nM.

In the case of `Cc1ccc(C)c2c1cc(C(=O)NC1CCN(C(C)C)CC1)n2Cc1cc(-c2ccc(Cl)s2)on1` [Example 178, 1-[5-(5-Chloro-thiophen-2-yl)-isoxazol-3-ylmethyl]-4,7-dimethyl-1H-indole-2-carboxylic acid (1-isopropyl-piperidin-4-yl)-amide], the Ki worked out at 1.3 nM.

The same experiment, now with this note: inhibition constant for factor Xa; purified enzyme 0.5 nM, substrate S-2765 140 μM, 25° C., pH 7.8; Ki=IC50/{1+(substrate concentration/Km)}; read-out: Ki(FXa).
Regarding `CC(C)N1CCC(NC(=O)c2cc3ccccc3n2Cc2cc3ccc(Cl)cc3s2)CC1` [Example 119, 1-(6-Chloro-benzo[b]thiophen-2-ylmethyl)-1H-indole-2-carboxylic acid (1-isopropyl-piperidin-4-yl)-amide], the Ki amounted to 40 nM.

On to `CC(C)N1CCC(NC(=O)c2cc3ccccc3n2Cc2nnc(-c3ccc(Cl)s3)s2)CC1` [Example 120, 1-[5-(5-Chloro-thiophen-2-yl)-[1,3,4]thiadiazol-2-ylmethyl]-1H-indole-2-carboxylic acid (1-isopropyl-piperidin-4-yl)-amide], for which the Ki came out at 4 nM.

As for `CC(C)N1CCC(NC(=O)c2cc3ccccc3n2Cc2cc(-c3ccc(Cl)s3)no2)CC1` [Example 121, 1-[3-(5-Chloro-thiophen-2-yl)-isoxazol-5-ylmethyl]-1H-indole-2-carboxylic acid (1-isopropyl-piperidin-4-yl)-amide], the Ki was determined as 3 nM.

Consider `CC(C)N1CCC(NC(=O)c2c(Cl)c3ccccc3n2Cc2cc(-c3ccc(Cl)s3)on2)CC1` [Example 122, 3-Chloro-1-[5-(5-chloro-thiophen-2-yl)-isoxazol-3-ylmethyl]-1H-indole-2-carboxylic acid (1-isopropyl-piperidin-4-yl)-amide], for which the Ki stood at 2 nM.

For the molecule `CC(C)N1CCC(NC(=O)c2c(Br)c3ccccc3n2Cc2cc(-c3ccc(Cl)s3)on2)CC1` [Example 123, 3-Bromo-1-[5-(5-chloro-thiophen-2-yl)-isoxazol-3-ylmethyl]-1H-indole-2-carboxylic acid (1-isopropyl-piperidin-4-yl)-amide], the Ki came to 2 nM.

On to `CC(C)N1CCC(NC(=O)c2c(F)c3ccccc3n2Cc2cc(-c3ccc(Cl)s3)on2)CC1` [Example 159, 3-Fluoro-1-[5-(5-chloro-thiophen-2-yl)-isoxazol-3-ylmethyl]-1H-indole-2-carboxylic acid (1-isopropyl-piperidin-4-yl)-amide], for which the Ki stood at 2 nM.

As for `CC(C)N1CCC(NC(=O)c2cc3ccccc3n2Cc2cnc(-c3ccc(Cl)s3)s2)CC1` [Example 162], the Ki turned out to be 57 nM.

In the case of `CC(C)N1CCC(NC(=O)c2cc3ccccc3n2Cc2cccc(Cl)c2)CC1` [Example 163, 1-(3-Chloro-benzyl)-1H-indole-2-carboxylic acid (1-isopropyl-piperidin-4-yl)-amide], the Ki was determined as 654 nM.

Take `CC(C)N1CCC(NC(=O)c2cc3ccccc3n2CCc2ccc(Cl)cc2)CC1` [Example 169, 1-[2-(4-Chloro-phenyl)-ethyl]-1H-indole-2-carboxylic acid (1-isopropyl-piperidin-4-yl)-amide]: the Ki stood at 73 nM.

Regarding `CC(C)N1CCC(NC(=O)c2cc3ccccc3n2CCc2ccc(Cl)cc2Cl)CC1` [Example 170, 1-[2-(2,4-Dichloro-phenyl)-ethyl]-1H-indole-2-carboxylic acid (1-isopropyl-piperidin-4-yl)-amide], the Ki is 470 nM.

Turning to `Cc1cccc2c1cc(C(=O)NC1CCN(C(C)C)CC1)n2Cc1cc(-c2ccc(Cl)s2)on1` [Example 174, 1-[5-(5-Chloro-thiophen-2-yl)-isoxazol-3-ylmethyl]-4-methyl-1H-indole-2-carboxylic acid (1-isopropyl-piperidin-4-yl)-amide], the Ki is 3 nM.

On to `CC(C)N1CCC(NC(=O)c2cc3cc(C#N)ccc3n2Cc2cc(-c3ccc(Cl)s3)on2)CC1` [Example 176, 1-[5-(5-Chloro-thiophen-2-yl)-isoxazol-3-ylmethyl]-5-cyano-1H-indole-2-carboxylic acid (1-isopropyl-piperidin-4-yl)-amide], for which the Ki was 2 nM.

The experiment is the same for the next values; noted with them: read-out: Ki(FXa).
`COc1cccc(Cn2c(C(=O)NC3CCN(C(C)C)CC3)cc3cc([N+](=O)[O-])ccc32)c1` [Example 71, 1-(3-Methoxy-benzyl)-5-nitro-1H-indole-2-carboxylic acid (1-isopropyl-piperidin-4-yl)-amide]: the Ki was found to be 277 nM.

`COc1cccc(Cn2c(C(=O)NC3CCN(C(C)C)CC3)cc3cc(OC)ccc32)c1` [Example 72, 5-Methoxy-1-(3-methoxy-benzyl)-1H-indole-2-carboxylic acid (1-isopropyl-piperidin-4-yl)-amide]: the Ki is 167 nM.

As for `CC(C)N1CCC(NC(=O)c2cc3ccccc3n2Cc2ccc(OC(F)(F)F)cc2)CC1` [Example 146, 1-(4-Trifluoromethoxy-benzyl)-1H-indole-2-carboxylic acid (1-isopropyl-piperidin-4-yl)-amide], the Ki is 440 nM.

`CC(C)N1CCC(NC(=O)c2cc3ccccc3n2Cc2ccccc2Cl)CC1` [Example 148, 1-(2-Chloro-benzyl)-1H-indole-2-carboxylic acid (1-isopropyl-piperidin-4-yl)-amide]: the Ki came to 1930 nM.

As to `CC(C)N1CCC(NC(=O)c2cc3ccccc3n2Cc2cc(Cl)cc(Cl)c2)CC1` [Example 157, 1-(3,5-Dichloro-benzyl)-1H-indole-2-carboxylic acid (1-isopropyl-piperidin-4-yl)-amide], the Ki was 686 nM.

As to `CC(C)N1CCC(NC(=O)c2cc3ccccc3n2Cc2cccc(C(N)=O)c2)CC1` [Example 165, 1-(3-Carbamoyl-benzyl)-1H-indole-2-carboxylic acid (1-isopropyl-piperidin-4-yl)-amide], the Ki is 765 nM.

As to `COc1cccc2c1cc(C(=O)NC1CCN(C(C)C)CC1)n2CCc1ccc(Cl)cc1` [Example 172, 1-[2-(4-Chloro-phenyl)-ethyl]-4-methoxy-1H-indole-2-carboxylic acid (1-isopropyl-piperidin-4-yl)-amide], the inhibition constant Ki was 41 nM.

`CC(C)N1CCC(NC(=O)c2cc3c(Br)cccc3n2Cc2cc(-c3ccc(Cl)s3)on2)CC1` [Example 173, 4-Bromo-1-[5-(5-chloro-thiophen-2-yl)-isoxazol-3-ylmethyl]-1H-indole-2-carboxylic acid (1-isopropyl-piperidin-4-yl)-amide]: the Ki is 15 nM.

Take `CC(C)N1CCC(NC(=O)c2cc3c(C(F)(F)F)cccc3n2Cc2cc(-c3ccc(Cl)s3)on2)CC1` [Example 177, 1-[5-(5-Chloro-thiophen-2-yl)-isoxazol-3-ylmethyl]-4-trifluoromethyl-1H-indole-2-carboxylic acid (1-isopropyl-piperidin-4-yl)-amide]: the Ki is 15 nM.

The values are drawn from patent US20090069565A1, “NEW INDOLE DERIVATIVES AS FACTOR XA INHIBITORS” (priority 2001, published 2009).
